The text below walks through data of US9260425B2 (Genetech, Inc., priority 2011, dated 2016).

Each structure is given as a SMILES string.

Chain of Pim-1 (P11309 whole entry): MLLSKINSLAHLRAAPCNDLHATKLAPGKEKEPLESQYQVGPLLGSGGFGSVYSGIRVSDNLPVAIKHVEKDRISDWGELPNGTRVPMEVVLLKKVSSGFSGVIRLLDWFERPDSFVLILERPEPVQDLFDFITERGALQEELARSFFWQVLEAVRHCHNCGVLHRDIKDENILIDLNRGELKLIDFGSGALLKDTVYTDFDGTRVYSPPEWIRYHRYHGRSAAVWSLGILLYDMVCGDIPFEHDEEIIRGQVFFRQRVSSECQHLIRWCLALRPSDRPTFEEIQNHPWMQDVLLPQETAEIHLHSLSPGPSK

In the assay the target is Pim-1 (Homo sapiens (Human), UniProt P11309). The assay can be described thus: Pim kinase binding activity assay (Example 901), PIM-1 enzyme, Caliper microfluidic peptide phosphorylation. The class given is biochemical. To be noted: 20 pM PIM-1, 10 μM ATP, 1 μM FAM-peptide, 90 minutes at room temperature. The method, boiled down:
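PIM-1 at 20 pM phosphorylated 1 μM FAM-labelled Pim peptide with 10 μM ATP in HEPES pH 7.2, MgCl2, Tween 20 and DTT for 90 min at room temperature. EDTA stopped the reaction, and product and substrate were resolved by microfluidic electrophoresis (ex 488/em 530 nm). Ki was derived from substrate conversion.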
One may read the Ki as the equilibrium dissociation constant of an inhibitor or competing ligand from its target. A low value points to a stronger hold on the target. As for `N[C@H]1CCCN(c2nc(-c3n[nH]c4cnc(-c5cccnc5)cc34)ccc2C2CC2)C1` [Example 485, (S)-1-(3-cyclopropyl-6-(5-(pyridin-3-yl)-1H-pyrazolo[3,4-c]pyridin-3-yl)pyridin-2-yl)piperidin-3-amine], the Ki came out at 0.022 nM. In other words, the picomolar range.

Regarding `Cn1cc(-c2cc3c(-c4ccc(C5CC5)c(N5CCC[C@H](N)C5)n4)n[nH]c3cn2)cn1` [Example 486, (S)-1-(3-cyclopropyl-6-(5-(1-methyl-1H-pyrazol-4-yl)-1H-pyrazolo[3,4-c]pyridin-3-yl)pyridin-2-yl)piperidin-3-amine], affinity was put at a Ki of 0.009 nM. Regarding `c1cc(-c2n[nH]c3cnc(-c4cnn(C5CC5)c4)cc23)nc(N2CCNCC2)c1` [Example 487, 5-(1-cyclopropyl-1H-pyrazol-4-yl)-3-(6-(piperazin-1-yl)pyridin-2-yl)-1H-pyrazolo[3,4-c]pyridine], the Ki was 0.106 nM. Turning to `FC(F)(F)Cn1cc(-c2cc3c(-c4cccc(N5CCNCC5)n4)n[nH]c3cn2)cn1` [Example 488, 3-(6-(piperazin-1-yl)pyridin-2-yl)-5-(1-(2,2,2-trifluoroethyl)-1H-pyrazol-4-yl)-1H-pyrazolo[3,4-c]pyridine], affinity was put at a Ki of 0.022 nM. Take `FCCn1cc(-c2cc3c(-c4cccc(N5CCCNCC5)n4)n[nH]c3cn2)cn1` [Example 489, 3-(6-(1,4-diazepan-1-yl)pyridin-2-yl)-5-(1-(2-fluoroethyl)-1H-pyrazol-4-yl)-1H-pyrazolo[3,4-c]pyridine]: the affinity corresponds to a Ki of 0.014 nM. Compared with the last compound, the Ki is about 1.6-fold lower. With `CCn1cc(-c2cc3c(-c4cc(C#N)cc(N5CCCNCC5)n4)n[nH]c3cn2)cn1` [Example 490, 2-(1,4-diazepan-1-yl)-6-(5-(1-ethyl-1H-pyrazol-4-yl)-1H-pyrazolo[3,4-c]pyridin-3-yl)isonicotinonitrile], the Ki turned out to be 0.107 nM.

`CCn1cc(-c2cc3c(-c4cccc(N5CCNC(C(F)(F)F)CC5)n4)n[nH]c3cn2)cn1` (stereo not shown) [Example 491, 5-(1-ethyl-1H-pyrazol-4-yl)-3-(6-(5-(trifluoromethyl)-1,4-diazepan-1-yl)pyridin-2-yl)-1H-pyrazolo[3,4-c]pyridine] gave a Ki of 0.181 nM. This Ki is about 1.7-fold higher than that of the compound before.

In turn, `CCn1cc(-c2cc3c(-c4cc(C)ccn4)n[nH]c3cn2)cn1` [Example 492, 5-(1-ethyl-1H-pyrazol-4-yl)-3-(4-methylpyridin-2-yl)-1H-pyrazolo[3,4-c]pyridine] returned a Ki of 23.2 nM.

Turning to `CCc1ccnc(-c2n[nH]c3cnc(-c4cnn(CC)c4)cc23)c1` [Example 493, 5-(1-ethyl-1H-pyrazol-4-yl)-3-(4-ethylpyridin-2-yl)-1H-pyrazolo[3,4-c]pyridine], the Ki is 43.6 nM.

Take `CCn1cc(-c2cc3c(-c4cccc(N5CCCCC(O)C5)n4)n[nH]c3cn2)cn1` (stereo not shown) [Example 494, 1-(6-(5-(1-ethyl-1H-pyrazol-4-yl)-1H-pyrazolo[3,4-c]pyridin-3-yl)pyridin-2-yl)azepan-3-ol]: the affinity, expressed as Ki, was 0.122 nM.

For `Cn1cc(-c2cc3c(-c4cccc(N5C[C@@H](N)C[C@@H](F)C5)n4)n[nH]c3cn2)cn1` [Example 495, (3S,5R)-5-fluoro-1-(6-(5-(1-methyl-1H-pyrazol-4-yl)-1H-pyrazolo[3,4-c]pyridin-3-yl)pyridin-2-yl)piperidin-3-amine], the affinity corresponds to a Ki of 0.122 nM. In the case of `OCCn1cc(-c2cc3c(-c4cccc(N5CCNCC5)n4)n[nH]c3cn2)cn1` [Example 496, 2-(4-(3-(6-(piperazin-1-yl)pyridin-2-yl)-1H-pyrazolo[3,4-c]pyridin-5-yl)-1H-pyrazol-1-yl)ethanol] it was 0.13 nM; in that of `CCn1cc(-c2cc3c(-c4cc(CO)ccn4)n[nH]c3cn2)cn1` [Example 498, (2-(5-(1-ethyl-1H-pyrazol-4-yl)-1H-pyrazolo[3,4-c]pyridin-3-yl)pyridin-4-yl)methanol], 17.2 nM; in that of `C=C(C)c1ccnc(-c2n[nH]c3cnc(-c4cnn(CC)c4)cc23)c1` [Example 500, 5-(1-ethyl-1H-pyrazol-4-yl)-3-(4-(prop-1-en-2-yl)pyridin-2-yl)-1H-pyrazolo[3,4-c]pyridine], 54.1 nM.

The compound `CCn1cc(-c2cc3c(-c4cccc(N5CCCC[C@H](O)C5)n4)n[nH]c3cn2)cn1` [Example 501, (S)-1-(6-(5-(1-ethyl-1H-pyrazol-4-yl)-1H-pyrazolo[3,4-c]pyridin-3-yl)pyridin-2-yl)azepan-3-ol] showed a Ki of 0.103 nM. The compound `CCn1cc(-c2cc3c(-c4cccc(N5CCCC[C@@H](O)C5)n4)n[nH]c3cn2)cn1` [Example 502, (R)-1-(6-(5-(1-ethyl-1H-pyrazol-4-yl)-1H-pyrazolo[3,4-c]pyridin-3-yl)pyridin-2-yl)azepan-3-ol] yielded a Ki of 0.139 nM.

As for `C[C@H]1CN(c2cccc(-c3n[nH]c4cnc(-c5cnn(CCF)c5)cc34)n2)CCN1` [Example 503, (S)-5-(1-(2-fluoroethyl)-1H-pyrazol-4-yl)-3-(6-(3-methylpiperazin-1-yl)pyridin-2-yl)-1H-pyrazolo[3,4-c]pyridine], the affinity, expressed as Ki, was 0.0294 nM. To `CCn1cc(-c2cc3c(-c4cccc(N5CCNCC(F)C5)n4)n[nH]c3cn2)cn1` (stereo not shown) [Example 504, 5-(1-ethyl-1H-pyrazol-4-yl)-3-(6-(6-fluoro-1,4-diazepan-1-yl)pyridin-2-yl)-1H-pyrazolo[3,4-c]pyridine] belongs 0.076 nM. In the case of `CCn1cc(-c2cc3c(-c4ccc(C5CC5)c(N5CCC[C@H](N)C5)n4)n[nH]c3cn2)cn1` [Example 506, (S)-1-(3-cyclopropyl-6-(5-(1-ethyl-1H-pyrazol-4-yl)-1H-pyrazolo[3,4-c]pyridin-3-yl)pyridin-2-yl)piperidin-3-amine] it was 0.021 nM; in that of `CCn1cc(-c2cc3c(-c4cc(C(C)C)ccn4)n[nH]c3cn2)cn1` [Example 507, 5-(1-ethyl-1H-pyrazol-4-yl)-3-(4-isopropylpyridin-2-yl)-1H-pyrazolo[3,4-c]pyridine], 29.8 nM. In the case of `CCn1cc(-c2cc3c(-c4ccccn4)n[nH]c3cn2)cn1` [Example 508, 5-(1-ethyl-1H-pyrazol-4-yl)-3-(pyridin-2-yl)-1H-pyrazolo[3,4-c]pyridine] it was 10.6 nM; in that of `Cc1ccc(-c2n[nH]c3cnc(-c4cnn(C)c4)cc23)nc1N1C[C@@H](N)C[C@@H](F)C1` [Example 509, (3S,5R)-5-fluoro-1-(3-methyl-6-(5-(1-methyl-1H-pyrazol-4-yl)-1H-pyrazolo[3,4-c]pyridin-3-yl)pyridin-2-yl)piperidin-3-amine], 0.056 nM; in that of `CCn1cc(-c2cc3c(-c4ccc(C)c(N5C[C@@H](N)C[C@@H](F)C5)n4)n[nH]c3cn2)cn1` [Example 510, (3S,5R)-1-(6-(5-(1-ethyl-1H-pyrazol-4-yl)-1H-pyrazolo[3,4-c]pyridin-3-yl)-3-methylpyridin-2-yl)-5-fluoropiperidin-3-amine], 0.03 nM. On to `CCn1cc(-c2cc3c(-c4cccc(N5CCNCC(CO)C5)n4)n[nH]c3cn2)cn1` (stereo not shown) [Example 511, (1-(6-(5-(1-ethyl-1H-pyrazol-4-yl)-1H-pyrazolo[3,4-c]pyridin-3-yl)pyridin-2-yl)-1,4-diazepan-6-yl)methanol], for which the Ki is 0.016 nM. Compared with the last compound, the Ki is about 1.9-fold lower. As to `CCn1cc(-c2cc3c(-c4cccc(N5CCNCC(CO)C5)n4)n[nH]c3cn2)cn1` (stereo not shown) [Example 512, (1-(6-(5-(1-ethyl-1H-pyrazol-4-yl)-1H-pyrazolo[3,4-c]pyridin-3-yl)pyridin-2-yl)-1,4-diazepan-6-yl)methanol], the Ki worked out at 0.04 nM. In turn, `CCn1cc(-c2cc3c(-c4cccc(NC5CCCCNC5)n4)n[nH]c3cn2)cn1` (stereo not shown) [Example 513, N-(6-(5-(1-ethyl-1H-pyrazol-4-yl)-1H-pyrazolo[3,4-c]pyridin-3-yl)pyridin-2-yl)azepan-3-amine] displayed a Ki of 0.055 nM. The compound `NC1CCCCN(c2cccc(-c3n[nH]c4cnc(-c5cnn(CCF)c5)cc34)n2)C1` (stereo not shown) [Example 514, 1-(6-(5-(1-(2-fluoroethyl)-1H-pyrazol-4-yl)-1H-pyrazolo[3,4-c]pyridin-3-yl)pyridin-2-yl)azepan-3-amine] gave a Ki of 0.077 nM. The compound `CCn1cncc(-c2cc3c(-c4cccc(N5CCNCC5)n4)n[nH]c3cn2)c1=O` [Example 515, 3-ethyl-5-(3-(6-(piperazin-1-yl)pyridin-2-yl)-1H-pyrazolo[3,4-c]pyridin-5-yl)pyrimidin-4(3H)-one] had an inhibitory constant (Ki) of 0.015 nM. For `CC1CN(c2cccc(-c3n[nH]c4cnc(-c5cnn(CCF)c5)cc34)n2)CCN1` (stereo not shown) [Example 516, 5-(1-(2-fluoroethyl)-1H-pyrazol-4-yl)-3-(6-(3-methylpiperazin-1-yl)pyridin-2-yl)-1H-pyrazolo[3,4-c]pyridine], the Ki worked out at 0.024 nM. To `Cn1cc(-c2cc3c(-c4cccc(N5C[C@H](N)C[C@@H](F)C5)n4)n[nH]c3cn2)cn1` [Example 517, (3R,5R)-5-fluoro-1-(6-(5-(1-methyl-1H-pyrazol-4-yl)-1H-pyrazolo[3,4-c]pyridin-3-yl)pyridin-2-yl)piperidin-3-amine] belongs 1.17 nM. In the case of `CCn1cc(-c2cc3c(-c4cccc(N5CCCCC(N)C5)n4)n[nH]c3cn2)cn1` (stereo not shown) [Example 518, 1-(6-(5-(1-ethyl-1H-pyrazol-4-yl)-1H-pyrazolo[3,4-c]pyridin-3-yl)pyridin-2-yl)azepan-3-amine] it was 0.082 nM; in that of `N[C@H]1CCCCN(c2cccc(-c3n[nH]c4cnc(-c5cnn(CCF)c5)cc34)n2)C1` [Example 519, (S)-1-(6-(5-(1-(2-fluoroethyl)-1H-pyrazol-4-yl)-1H-pyrazolo[3,4-c]pyridin-3-yl)pyridin-2-yl)azepan-3-amine], 0.025 nM. To `N[C@@H]1CCCCN(c2cccc(-c3n[nH]c4cnc(-c5cnn(CCF)c5)cc34)n2)C1` [Example 520, (R)-1-(6-(5-(1-(2-fluoroethyl)-1H-pyrazol-4-yl)-1H-pyrazolo[3,4-c]pyridin-3-yl)pyridin-2-yl)azepan-3-amine] belongs 0.098 nM; to `C[C@@H]1CN(c2cccc(-c3n[nH]c4cnc(-c5cnn(CCF)c5)cc34)n2)CCN1` [Example 521, (R)-5-(1-(2-fluoroethyl)-1H-pyrazol-4-yl)-3-(6-(3-methylpiperazin-1-yl)pyridin-2-yl)-1H-pyrazolo[3,4-c]pyridine], 0.026 nM.
